Patent publication US20180333538A1, “INJECTION APPARATUS” (Daicel Corporation, priority 2015, published 2018)
Read-outs that look alike come from different tables or passages of the source.

Tested on: intradermal layer which is skin tissue of the rabbit in vivo
Conditions: 100 μl intradermal
Procedure: Moreover, an object of the following experimental conditions is to confirm, when an inflammatory substance is injected to the intradermal layer which is skin tissue of the rabbit in vivo, a presence or absence of an inflammatory response (formation of erythema and eschar, and formation of edema) for each elapsed time (after 24 hours, 48 hours, and 72 hours) . In addition, the injection of an injection solution with the needled injector was performed at a constant pressurization rate.
16-week-old male Std: JW/CSK rabbit, already shaved and smooth skin-verified, was used.
An aqueous solution of the following inflammatory substance was used as the dosing liquid and the injection solution.
Inflammatory substance: acetic acid, diluted to a predetermined concentration with distilled water, dose 100 μl
Definitions of numerical values representing the experimental results in the tables with respect to each of erythema and eschar formation and edema formation are as follows.
1 Very slight erythema (barely perceptible erythema)
2 Slight erythema (clearly perceptible erythema)
3 Moderate to severe erythema
4 Severe erythema to eschar formations
1 Very slight edema (barely perceptible edema)
2 Slight edema (edema with edges perceptible due to definite raising)
3 Moderate edema (raised approximately 1 mm)
4 Severe edema (raised 1 mm or more and extending beyond the area of exposure)

[1] = Comparative example (needled injector), acetic acid 0.25%, 24 h
[2] = Comparative example (needled injector), acetic acid 0.25%, 48 h
[3] = Comparative example (needled injector), acetic acid 0.25%, 72 h
[4] = Comparative example (needled injector), acetic acid 0.5%, 24 h
[5] = Comparative example (needled injector), acetic acid 0.5%, 48 h
[6] = Comparative example (needled injector), acetic acid 0.5%, 72 h
[7] = Comparative example (needled injector), acetic acid 1.0%, 24 h
[8] = Comparative example (needled injector), acetic acid 1.0%, 48 h
[9] = Comparative example (needled injector), acetic acid 1.0%, 72 h
[10] = Comparative example (needled injector), acetic acid 1.5%, 24 h
[11] = Comparative example (needled injector), acetic acid 1.5%, 48 h
[12] = Comparative example (needled injector), acetic acid 1.5%, 72 h
[13] = Comparative example (needled injector), acetic acid 2.0%, 24 h
[14] = Comparative example (needled injector), acetic acid 2.0%, 48 h
[15] = Comparative example (needled injector), acetic acid 2.0%, 72 h
[16] = Injector 1, acetic acid 0.25%, 24 h
[17] = Injector 1, acetic acid 0.25%, 48 h
[18] = Injector 1, acetic acid 0.25%, 72 h
[19] = Injector 1, acetic acid 0.5%, 24 h
[20] = Injector 1, acetic acid 0.5%, 48 h
[21] = Injector 1, acetic acid 0.5%, 72 h
[22] = Injector 1, acetic acid 1.0%, 24 h
[23] = Injector 1, acetic acid 1.0%, 48 h
[24] = Injector 1, acetic acid 1.0%, 72 h
[25] = Injector 1, acetic acid 1.5%, 24 h
[26] = Injector 1, acetic acid 1.5%, 48 h
[27] = Injector 1, acetic acid 1.5%, 72 h
[28] = Injector 1, acetic acid 2.0%, 24 h
[29] = Injector 1, acetic acid 2.0%, 48 h
[30] = Injector 1, acetic acid 2.0%, 72 h

Edema [1]: 0
Erythema etc. [1]: 1
Edema [2]: 0
Erythema etc. [2]: 1
Edema [3]: 0
Erythema etc. [3]: 1
Edema [4]: 0
Erythema etc. [4]: 1
Edema [5]: 0
Erythema etc. [5]: 1
Edema [6]: 0
Erythema etc. [6]: 1
Edema [7]: 1
Erythema etc. [7]: 1
Edema [8]: 1
Erythema etc. [8]: 1
Edema [9]: 1
Erythema etc. [9]: 1
Edema [10]: 2
Erythema etc. [10]: 1
Edema [11]: 2
Erythema etc. [11]: 1
Edema [12]: 2
Erythema etc. [12]: 1
Edema [13]: 3
Erythema etc. [13]: 1
Edema [14]: 3
Erythema etc. [14]: 1
Edema [15]: 2
Erythema etc. [15]: 1
Edema [16]: 0
Erythema etc. [16]: 1
Edema [17]: 0
Erythema etc. [17]: 1
Edema [18]: 0
Erythema etc. [18]: 1
Edema [19]: 0
Erythema etc. [19]: 1
Edema [20]: 0
Erythema etc. [20]: 1
Edema [21]: 0
Erythema etc. [21]: 1
Edema [22]: 0
Erythema etc. [22]: 1
Edema [23]: 0
Erythema etc. [23]: 1
Edema [24]: 0
Erythema etc. [24]: 1
Edema [25]: 0
Erythema etc. [25]: 1
Edema [26]: 0
Erythema etc. [26]: 1
Edema [27]: 0
Erythema etc. [27]: 1
Edema [28]: 1
Erythema etc. [28]: 1
Edema [29]: 1
Erythema etc. [29]: 1
Edema [30]: 1
Erythema etc. [30]: 1
Compound: CC(=O)O [Acetic acid, acetic acid]
